Experiment [1] deals with Mycobacterium smegmatis ATCC 19420. Nature of the experiment: MIC, broth microdilution (CLSI) versus planktonic bacteria. The format is cell-based. The settings on record: Mycolicibacterium smegmatis, ATCC19420, 16-20 h, mode of three independent experiments, read-out: MIC, Ms ATCC 19420. (In general: Broth dilution looks for growth in wells or tubes with falling amounts of substance.)

For experiment [2], the system named is Enterobacter cloacae NCTC 13406. The description is as above. The format is cell-based. The settings on record: NCTC13406; Enterobacter cloacae NCTC 13406; 16-20 h; mode of three independent experiments; read-out: MIC, Ecl NCTC 13406.
For experiment [3], the system named is Staphylococcus aureus ATCC 29213. Described as above. The format is cell-based. The following applies: ATCC29213; Staphylococcus aureus ATCC 29213; 16-20 h; mode of three independent experiments; read-out: MIC, Sa ATCC 29213.
The test system of experiment [4] is Escherichia coli ATCC 25922. The description is as above. It counts as cell-based. The settings on record: ATCC25922; Escherichia coli ATCC 25922; 16-20 h; mode of three independent experiments; read-out: MIC, Ec ATCC 25922.
Experiment [5] deals with human hepatic cell line (HepG2 ATCC HB-8065). Nature of the experiment: Human cell viability assay (CellTiter-Glo). The following applies: Homo sapiens, HepG2, 24 h, read-out: IC50 (μg/mL) HepG2. A general note: ATP-based viability assays read luminescence as a measure of living cells.
In experiment [6] the test system is Haemophilus influenzae ATCC 49247. The experiment can be described thus: MIC, broth microdilution (CLSI) versus planktonic bacteria. The settings on record: ATCC49247; Haemophilus influenzae ATCC 49247; 16-20 h; mode of three independent experiments; read-out: MIC, Hi ATCC 49247. It counts as cell-based.
The test system of experiment [7] is Pseudomonas aeruginosa ATCC 27853. The experiment is described as above. The format is cell-based. The settings on record: ATCC27853; Pseudomonas aeruginosa ATCC 27853; 16-20 h; mode of three independent experiments; read-out: MIC, Pa ATCC 27853.
For experiment [8], the system named is Streptococcus pneumoniae ATCC 49619. The experiment is described as above. The format is cell-based. The settings on record: ATCC49619; Streptococcus pneumoniae ATCC 49619; 16-20 h; mode of three independent experiments; read-out: MIC, Sp ATCC 49619.
Experiment [9] has as its system Acinetobacter baumannii NCTC 13420. Described as above. It counts as cell-based. The settings on record: NCTC13420; Acinetobacter baumannii NCTC 13420; 16-20 h; mode of three independent experiments; read-out: MIC, Ab NCTC 13420.
Experiment [10] deals with Acinetobacter baumannii ATCC 19606. The description is as above. It counts as cell-based. The settings on record: ATCC19606; Acinetobacter baumannii ATCC 19606; 16-20 h; mode of three independent experiments; read-out: MIC, Ab ATCC 19606.
The next experiment deals with E. coli ATCC BAA-2452. The description is as above. The following applies: Escherichia coli ATCC BAA-2452; 16-20 h; mode of three independent experiments; read-out: MIC, Ec ATCC BAA 2452. The format is cell-based.
Experiment [11] deals with Enterococcus faecalis ATCC 29212. Described as above. The format is cell-based. The settings on record: ATCC29212, 16-20 h, mode of three independent experiments, read-out: MIC, Ef ATCC 29212.
In a further experiment the test system is E. coli MG1655. The description is as above. The following applies: Escherichia coli, MG1655, read-out: MIC, Ec MG1655 WT. It counts as cell-based, Escherichia coli.
Experiment [12] relates to fluoroquinolone-resistant Enterococcus faecium ATCC 700221. The experiment is described as above. The format is cell-based. The settings on record: ATCC700221, 16-20 h, mode of three independent experiments, read-out: MIC, Efm ATCC 700221.
For a further experiment, the system named is E. coli MG1655 D87G. The format is cell-based, Escherichia coli. The settings on record: compared to the isogenic parent strain E. coli MG1655; D87G mutation on DNA gyrase subunit GyrA.
A further experiment deals with E. coli NCTC 13476. The experiment can be described thus: MIC, broth microdilution (CLSI) versus planktonic bacteria. It counts as cell-based. The settings on record: NCTC13476; Escherichia coli NCTC 13476; 16-20 h; mode of three independent experiments; read-out: MIC, Ec NCTC 13476.
The subject of a further experiment is E. coli MG1655 S83L. The format is cell-based, Escherichia coli. The following applies: compared to the isogenic parent strain E. coli MG1655; S83L mutation on DNA gyrase subunit GyrA.
The subject of experiment [13] is Enterococcus faecium ATCC 19434. Nature of the experiment: MIC, broth microdilution (CLSI) versus planktonic bacteria. The format is cell-based. The following applies: ATCC19434, 16-20 h, mode of three independent experiments, read-out: MIC, Efm ATCC 19434.

Converted amounts (≈) assume the structure as drawn. A value given as a limit tells only on which side of the number the result lay.

Take `NCCCOc1ccc2ccc(=O)n(CCN[C@H]3CC[C@H]4[C@@H](C3)OC(=O)N4c3ccc4c(n3)NC(=O)CO4)c2n1` [Compound 5, 1-(2-{[(3aS,6S,7aR)-2-oxo-3-{3-oxo-2H,3H,4H-pyrido[3,2-b][1,4]oxazin-6-yl}-octahydro-1,3-benzoxazol-6-yl]amino}ethyl)-7-(3-aminopropoxy)-1,2-dihydro-1,8-naphthyridin-2-one]: the MIC in experiment [1] was 1 to 10 µg/mL (≈ 1.82 to 18.2 µM); in [2] it was greater than 100 µg/mL; in experiment [3], 1 to 10 µg/mL (≈ 1.82 to 18.2 µM); in experiment [4] it was 10 to 100 µg/mL (≈ 18.2 to 182 µM); in [6], greater than 100 µg/mL; in experiment [7], 1 to 10 µg/mL (≈ 1.82 to 18.2 µM). Further, the MIC in experiment [8] was 10 to 100 µg/mL (≈ 18.2 to 182 µM); in [9], greater than 100 µg/mL. In experiment [5], the IC50 is greater than 100 µg/mL.
For the compound `O=C1COc2ccc(N3C(=O)O[C@@H]4C[C@@H](NCCn5c(=O)ccc6ccc(OCCO)nc65)CC[C@@H]43)nc2N1` [Compound 6, 1-(2-{[(3aS,6S,7aR)-2-oxo-3-{3-oxo-2H,3H,4H-pyrido[3,2-b][1,4]oxazin-6-yl}-octahydro-1,3-benzoxazol-6-yl]amino}ethyl)-7-(2-hydroxyethoxy)-1,2-dihydro-1,8-naphthyridin-2-one], the MIC in [1] is less than 1 µg/mL; in experiment [2], 10 to 100 µg/mL (≈ 18.6 to 186 µM); in experiment [3], 1 to 10 µg/mL (≈ 1.86 to 18.6 µM); in experiment [4], 1 to 10 µg/mL (≈ 1.86 to 18.6 µM); in experiment [6], 1 to 10 µg/mL (≈ 1.86 to 18.6 µM); in experiment [7] it was 1 to 10 µg/mL (≈ 1.86 to 18.6 µM). In addition, the MIC is less than 1 µg/mL in experiment [8] and 10 to 100 µg/mL (≈ 18.6 to 186 µM) in [9]. Further, the IC50 in experiment [5] is greater than 100 µg/mL.
Turning to `COc1cnc2ccc(=O)n(CCN[C@H]3CC[C@H]4[C@H](C3)OC(=O)N4c3ccc4c(n3)NC(=O)CS4)c2c1` [Compound 81, 1-(2-{[(3aS,6S,7aS)-2-oxo-3-{3-oxo-2H,3H,4H-pyrido[3,2-b][1,4]thiazin-6-yl}-octahydro-1,3-benzoxazol-6-yl]amino}ethyl)-7-methoxy-1,2-dihydro-1,5-naphthyridin-2-one], the MIC (in experiment [10]; in [2]; with E. coli ATCC BAA-2452; in [3]; in experiment [11]; in the experiment with E. coli MG1655) was less than 1 µg/mL in each case. In addition, the MIC was less than 1 µg/mL in [12]; less than 1 µg/mL in [4]; less than 1 µg/mL in experiment [6]; 1 to 10 µg/mL (≈ 1.91 to 19.1 µM) in experiment [7]; less than 1 µg/mL in the experiment with E. coli NCTC 13476; less than 1 µg/mL in [8]. Besides, the MIC in experiment [13] and in experiment [9] was less than 1 µg/mL in each case. The IC50 in [5] lay in the range of 10 to 100 µg/mL (≈ 19.1 to 191 µM). The “Fold increase in MIC, E. coli MG1655 D87G” value in the experiment on E. coli MG1655 D87G amounted to 1 fold. Further, in the experiment with E. coli MG1655 S83L, the “Fold increase in MIC, E. coli MG1655 S83L” value amounted to 1 fold.
`CCCOc1ccc2ccc(=O)n(CCN[C@H]3CC[C@H]4[C@H](C3)OC(=O)N4c3ccc4c(n3)NC(=O)CO4)c2c1` [Compound 91, 1-(2-{[(3aS,6S,7aS)-2-oxo-3-{3-oxo-2H,3H,4H-pyrido[3,2-b][1,4]oxazin-6-yl}-octahydro-1,3-benzoxazol-6-yl]amino}ethyl)-7-propoxy-1,2-dihydroquinolin-2-one]: the MIC in experiment [10] is less than 1 µg/mL; in experiment [2], 1 to 10 µg/mL (≈ 1.87 to 18.7 µM); in the experiment with E. coli ATCC BAA-2452, less than 1 µg/mL; in experiment [3], less than 1 µg/mL; in experiment [11], 1 to 10 µg/mL (≈ 1.87 to 18.7 µM); with E. coli MG1655 it was less than 1 µg/mL. Besides, the MIC in [12] is 1 to 10 µg/mL (≈ 1.87 to 18.7 µM); in experiment [4], less than 1 µg/mL; in experiment [6], less than 1 µg/mL; in experiment [7], 10 to 100 µg/mL (≈ 18.7 to 187 µM); in the experiment on E. coli NCTC 13476, 1 to 10 µg/mL (≈ 1.87 to 18.7 µM); in experiment [8], less than 1 µg/mL. Besides, the values for the MIC in experiment [13] and in [9] were 1 to 10 µg/mL (≈ 1.87 to 18.7 µM) and less than 1 µg/mL, respectively. Moreover, in experiment [5], the IC50 is 10 to 100 µg/mL (≈ 18.7 to 187 µM). In the experiment on E. coli MG1655 D87G, the “Fold increase in MIC, E. coli MG1655 D87G” value is recorded as 1 fold. The “Fold increase in MIC, E. coli MG1655 S83L” value with E. coli MG1655 S83L was found to be 0.5 fold.

The values above are taken from patent US10487093B2, “Heterocyclic compounds, in particular 2-oxo-4,4,5,5,6,6,7,7-octahydrobenzoxazole derivatives, and their use as antibacterial compounds” (priority 2016, dated 2019).
